Laboratory results: patent publication US10689327B2, “Prodrug amino acid derivative” (TAISHO PHARMACEUTICALS CO., LTD., priority 2016, dated 2020)

Experiment: Stability test in solution (pH 1.2 and pH 6.5)
Type: physicochemical
Settings: 1 hour; for Compound's percent residue (%) pH 6.5: 20 mM phosphate buffer pH 6.5, 37° C.; for Compound's percent residue (%) pH 1.2: hydrochloric acid solution pH 1.2, 37° C.
Protocol: Test 2: Stability Test in Solution
A test to determine the stability of Inventive Compounds (I-A) or (I) in a hydrochloric acid solution (pH 1.2) and 20 mM phosphate buffer (pH 6.5) was conducted in accordance with the following method.
A compound was dissolved in a hydrochloric acid solution (pH 1.2) containing hydrochloric acid and sodium chloride or a 20 mM phosphate buffer (pH 6.5) containing disodium hydrogenphosphate, sodium dihydrogenphosphate and sodium chloride to prepare a solution with a concentration of about 50 ng/mL (near the saturated concentration when the compound was not dissolved). The solution was incubated at 37° C. for 1 hour and the compound's concentration before and after the incubation was quantified by high-performance liquid chromatography to calculate the percent residue of the compound. Compounds having low solubility were assessed as being not applicable.
The percent residues of representative compounds in the hydrochloric acid solution (pH 1.2) and the 20 mM phosphate buffer (pH 6.5) are shown in the following Table 2.

| Compound's percent residue (%) pH 6.5 | Compound's percent residue (%) pH 1.2 | Compound |
| --- | --- | --- |
| 100% | 106% | CC(OC(=O)O[C@@H]1C[C@@H]2CC[C@@]1(C)C2(C)C)OC(=O)[C@@]1(N)[C@H]2[C@@H](C[C@H]1OCc1ccc(F)cc1)[C@]2(F)C(=O)O (stereo partly drawn) [Example 17-B, (1R,2R,3R,5R,6R)-2-Amino-6-fluoro-3-[(4-fluorophenyl)methoxy]-2-({1-[({[(1S,2R,4S)-1,7,7-trimethylbicyclo[2.2.1]heptan-2-yl]oxy}carbonyl)oxy]ethoxy}carbonyl)bicyclo[3.1.0]hexane-6-carboxylic acid] |
| 112% |  | CCCO[C@@H]1C[C@@H]2[C@H]([C@]1(N)C(=O)OC(C)OC(=O)O[C@@H]1C[C@@H]3CC[C@@]1(C)C3(C)C)[C@@]2(F)C(=O)O (stereo partly drawn) [Example 18-B, (1R,2R,3R,5R,6R)-2-Amino-6-fluoro-3-propoxy-2-({1-[({[(1S,2R,4S)-1,7,7-trimethylbicyclo[2.2.1]heptan-2-yl]oxy}carbonyl)oxy]ethoxy}carbonyl)bicyclo[3.1.0]hexane-6-carboxylic acid] |
| 99% | 98% | CC(OC(=O)O[C@H]1C[C@H]2CC[C@]1(C)C2(C)C)OC(=O)[C@@]1(N)[C@H]2[C@@H](C[C@H]1OCc1ccc(F)cc1)[C@]2(F)C(=O)O (stereo partly drawn) [Example 19-A, (1R,2R,3R,5R,6R)-2-Amino-6-fluoro-3-[(4-fluorophenyl)methoxy]-2-({1-[({[(1R,2S,4R)-1,7,7-trimethylbicyclo[2.2.1]heptan-2-yl]oxy}carbonyl)oxy]ethoxy}carbonyl)bicyclo[3.1.0]hexane-6-carboxylic acid] |
| 100% | 106% | CCCO[C@@H]1C[C@@H]2[C@H]([C@]1(N)C(=O)OC(C)OC(=O)O[C@H]1C[C@H]3CC[C@]1(C)C3(C)C)[C@@]2(F)C(=O)O (stereo partly drawn) [Example 20, (1R,2R,3R,5R,6R)-2-Amino-6-fluoro-3-propoxy-2-({1-[({[(1R,2S,4R)-1,7,7-trimethylbicyclo[2.2.1]heptan-2-yl]oxy}carbonyl)oxy]ethoxy}carbonyl)bicyclo[3.1.0]hexane-6-carboxylic acid] |
| 98% | 101% | CC(OC(=O)O[C@H]1C(C)(C)[C@H]2CC[C@]1(C)C2)OC(=O)[C@@]1(N)[C@H]2[C@@H](C[C@H]1OCc1ccc(F)cc1)[C@]2(F)C(=O)O (stereo partly drawn) [Example 21, (1R,2R,3R,5R,6R)-2-Amino-6-fluoro-3-[(4-fluorophenyl)methoxy]-2-({1-[({[(1R,2R,4S)-1,3,3-trimethylbicyclo[2.2.1]heptan-2-yl]oxy}carbonyl)oxy]ethoxy}carbonyl)bicyclo[3.1.0]hexane-6-carboxylic acid] |
| 94% | 96% | C[C@@H](OC(=O)C12CC3CC(CC(C3)C1)C2)OC(=O)[C@@]1(N)[C@H]2[C@@H](C[C@H]1OCc1ccc(C(F)(F)F)cc1)[C@]2(F)C(=O)O [Example 22, (1R,2R,3R,5R,6R)-2-amino-6-fluoro-2-({(1S)-1-[(tricyclo[3.3.1.1^3,7]decane-1-carbonyl)oxy]ethoxy}carbonyl)-3-{[4-(trifluoromethyl)phenyl]methoxy}bicyclo[3.1.0]hexane-6-carboxylic acid] |
| 100% | 101% | C[C@@H](OC(=O)C12CC3CC(CC(C3)C1)C2)OC(=O)[C@@]1(N)[C@H]2[C@@H](C[C@H]1OCc1cccc(F)c1)[C@]2(F)C(=O)O [Example 23, (1R,2R,3R,5R,6R)-2-amino-6-fluoro-3-[(3-fluorophenyl)methoxy]-2-({(1S)-1-[(tricyclo[3.3.1.1^3,7]decane-1-carbonyl)oxy]ethoxy}carbonyl)bicyclo[3.1.0]hexane-6-carboxylic acid] |
| 96% | 95% | C[C@@H](OC(=O)C12CC3CC(CC(C3)C1)C2)OC(=O)[C@@]1(N)[C@H]2[C@@H](C[C@H]1OCc1cccc(Cl)n1)[C@]2(F)C(=O)O [Example 24, (1R,2R,3R,5R,6R)-2-amino-3-[(6-chloropyridin-2-yl)methoxy]-6-fluoro-2-({(1S)-1-[(tricyclo[3.3.1.1^3,7]decane-1-carbonyl)oxy]ethoxy}carbonyl)bicyclo[3.1.0]hexane-6-carboxylic acid] |
| 99% | 98% | COc1cc([C@@H](C)O[C@@H]2C[C@@H]3[C@H]([C@]2(N)C(=O)O[C@@H](C)OC(=O)C24CC5CC(CC(C5)C2)C4)[C@@]3(F)C(=O)O)ccc1F [Example 25, (1R,2R,3R,5R,6R)-2-amino-6-fluoro-3-[(1R)-1-(4-fluoro-3-methoxyphenyl)ethoxy]-2-({(1S)-1-[(tricyclo[3.3.1.1^3,7]decane-1-carbonyl)oxy]ethoxy}carbonyl)bicyclo[3.1.0]hexane-6-carboxylic acid] |
| 94% | 97% | C[C@@H](OC(=O)C12CC3CC(CC(C3)C1)C2)OC(=O)[C@@]1(N)[C@H]2[C@@H](C[C@H]1OCc1ccc(Cl)cn1)[C@]2(F)C(=O)O [Example 26, (1R,2R,3R,5R,6R)-2-amino-3-[(5-chloropyridin-2-yl)methoxy]-6-fluoro-2-({(1S)-1-[(tricyclo[3.3.1.1^3,7]decane-1-carbonyl)oxy]ethoxy}carbonyl)bicyclo[3.1.0]hexane-6-carboxylic acid] |
| 101% | 100% | C[C@@H](OC(=O)C12CC3CC(CC(C3)C1)C2)OC(=O)[C@@]1(N)[C@H]2[C@@H](C[C@H]1OCc1ccc(Cl)nc1)[C@]2(F)C(=O)O [Example 27, (1R,2R,3R,5R,6R)-2-amino-3-[(6-chloropyridin-3-yl)methoxy]-6-fluoro-2-({(1S)-1-[(tricyclo[3.3.1.1^3,7]decane-1-carbonyl)oxy]ethoxy}carbonyl)bicyclo[3.1.0]hexane-6-carboxylic acid] |
| 102% | 100% | C[C@@H](OC(=O)C12CC3CC(CC(C3)C1)C2)OC(=O)[C@@]1(N)[C@H]2[C@@H](C[C@H]1OC1CCCC1)[C@]2(F)C(=O)O [Example 30, (1R,2R,3R,5R,6R)-2-amino-3-(cyclopentyloxy)-6-fluoro-2-({(1S)-1-[(tricyclo[3.3.1.1^3,7]decane-1-carbonyl)oxy]ethoxy}carbonyl)bicyclo[3.1.0]hexane-6-carboxylic acid] |
| 97% | 96% | CC(C)[C@@H]1CC[C@@H](C)C[C@H]1OC(=O)O[C@H](C)OC(=O)[C@@]1(N)[C@H]2[C@@H](C[C@H]1OCc1cccc(Cl)n1)[C@]2(F)C(=O)O [Example 33, (1R,2R,3R,5R,6R)-2-amino-3-[(6-chloropyridin-2-yl)methoxy]-6-fluoro-2-({(1R)-1-[({[(1R,2S,5R)-5-methyl-2-(propan-2-yl)cyclohexyl]oxy}carbonyl)oxy]ethoxy}carbonyl)bicyclo[3.1.0]hexane-6-carboxylic acid] |
| 94% | 100% | Cc1ccc(CO[C@@H]2C[C@@H]3[C@H]([C@]2(N)C(=O)O[C@@H](C)OC(=O)O[C@@H]2C[C@H](C)CC[C@H]2C(C)C)[C@@]3(F)C(=O)O)cc1 [Example 34, (1R,2R,3R,5R,6R)-2-amino-6-fluoro-3-[(4-methylphenyl)methoxy]-2-({(1R)-1-[({[(1R,2S,5R)-5-methyl-2-(propan-2-yl)cyclohexyl]oxy}carbonyl)oxy]ethoxy}carbonyl)bicyclo[3.1.0]hexane-6-carboxylic acid] |
| 97% | 100% | CC(C)(C)C(=O)OCOC(=O)[C@@]1(N)[C@H]2[C@@H](C[C@H]1OCc1ccc(F)cc1)[C@]2(F)C(=O)O [Example 35, (1R,2R,3R,5R,6R)-2-amino-2-({[(2,2-dimethylpropanoyl)oxy]methoxy}carbonyl)-6-fluoro-3-[(4-fluorophenyl)methoxy]bicyclo[3.1.0]hexane-6-carboxylic acid] |
| 99% | 100% | N[C@]1(C(=O)OCOC(=O)c2ccccc2)[C@H]2[C@@H](C[C@H]1OCc1ccc(F)cc1)[C@]2(F)C(=O)O [Example 36, (1R,2R,3R,5R,6R)-2-amino-2-{[(benzoyloxy)methoxy]carbonyl}-6-fluoro-3-[(4-fluorophenyl)methoxy]bicyclo[3.1.0]hexane-6-carboxylic acid] |
| 96% | 102% | N[C@]1(C(=O)OCOC(=O)C2CCCCC2)[C@H]2[C@@H](C[C@H]1OCc1ccc(F)cc1)[C@]2(F)C(=O)O [Example 37, (1R,2R,3R,5R,6R)-2-amino-2-({[(cyclohexanecarbonyl)oxy]methoxy}carbonyl)-6-fluoro-3-[(4-fluorophenyl)methoxy]bicyclo[3.1.0]hexane-6-carboxylic acid] |

| Compound | Compound's percent residue (%) pH 6.5 | Compound's percent residue (%) pH 1.2 |
| --- | --- | --- |
| CC(C)CCO[C@@H]1C[C@@H]2[C@H]([C@]1(N)C(=O)O[C@@H](C)OC(=O)C13CC4CC(CC(C4)C1)C3)[C@@]2(F)C(=O)O [Example 29, (1R,2R,3R,5R,6R)-2-amino-6-fluoro-3-(3-methylbutoxy)-2-({(1S)-1-[(tricyclo[3.3.1.1^3,7]decane-1-carbonyl)oxy]ethoxy}carbonyl)bicyclo[3.1.0]nexane-6-carboxylic acid] | 103% | 102% |
